Laboratory results reported in US9670142B2, “1,3-diaminocyclopentane carboxamide derivatives” (Merck Patent GmbH, priority 2013, dated 2017).

Molecular target: human fatty acid synthase FASN (Homo sapiens (Human), UniProt P49327)
Assay: Biochemical activity testing of human fatty acid synthase FASN (NADPH fluorescence intensity enzyme assay)
Conditions: human recombinant full-length fatty acid synthase
Description: Biochemical activity testing of human fatty acid synthase FASN
Fatty acid synthase FASN is a multifunctional enzyme with seven catalytic activities thereby synthesising long chain fatty acids especially palmitoyl-CoA in the presence of co-factor NADPH starting from the substrates acetyl-CoA and malonyl-CoA. The reductive synthesis is realized by the oxidation of NADPH to NADP. Since NADPH has a high fluorescence intensity quantum yield compared to NADP with excitation at 340 nm and emission at 460 nm, the reaction can be monitored via the decrease in fluorescence intensity. The biochemical FASN activity testing was performed as 384 well two-time-point kinetic fluorescence intensity assay format in Greiner low volume medium binding 384-well black microtiter plates in a total assay volume of 8 μl and was used for high throughput screen. In each well 3 μl 40 nM human recombinant full-length fatty acid synthase (produced in-house in SF9 cells) were dispensed in the following assay buffer: 50 mM potassium phosphate buffer pH 7.0, 0.005% (w/v) BSA, 2 mM Glutathione, 0.02% Tween-20. Then 2 μl of 200 μM NADPH in assay buffer were added, followed by the addition of the test compounds in 10 dilution concentrations starting with 30 μM (final concentration) to get a final DMSO content of 1% (v/v). The mixture was incubated for at least 15 min at room temperature. After the pre-incubation the enzymatic reaction was started by the addition of 2 μl substrate solution (80 μM acetyl-CoA, 240 μM malonyl-CoA). A first fluorescence intensity measurement (time point one) was performed with an Envision multimode reader (Perkin Elmer LAS Germany GmbH) at excitation wavelength 340 nm (lamp mode) and emission wavelength 460 nm. The reaction was incubated for 30 minutes at room temperature. After this the fluorescence intensity was measured again in the Envision using the same parameters as described above (second time point measurement). The data were analysed by subtracting the first time point measurement value from the second time point measurement value (after the enzymatic reaction). The differences of the emission signals were determined. These reflect directly the conversion rate of NADPH. The full value used was the inhibitor-free reaction. A pharmacological zero value was used like GSK837149A (Sigma-Aldrich) in a final concentration of 5-10 μM. The inhibitory values (IC50) were determined using either the program Symyx Assay Explorer® or Condosseo® from GeneData.

human fatty acid synthase FASN, sequence (P49327 whole entry): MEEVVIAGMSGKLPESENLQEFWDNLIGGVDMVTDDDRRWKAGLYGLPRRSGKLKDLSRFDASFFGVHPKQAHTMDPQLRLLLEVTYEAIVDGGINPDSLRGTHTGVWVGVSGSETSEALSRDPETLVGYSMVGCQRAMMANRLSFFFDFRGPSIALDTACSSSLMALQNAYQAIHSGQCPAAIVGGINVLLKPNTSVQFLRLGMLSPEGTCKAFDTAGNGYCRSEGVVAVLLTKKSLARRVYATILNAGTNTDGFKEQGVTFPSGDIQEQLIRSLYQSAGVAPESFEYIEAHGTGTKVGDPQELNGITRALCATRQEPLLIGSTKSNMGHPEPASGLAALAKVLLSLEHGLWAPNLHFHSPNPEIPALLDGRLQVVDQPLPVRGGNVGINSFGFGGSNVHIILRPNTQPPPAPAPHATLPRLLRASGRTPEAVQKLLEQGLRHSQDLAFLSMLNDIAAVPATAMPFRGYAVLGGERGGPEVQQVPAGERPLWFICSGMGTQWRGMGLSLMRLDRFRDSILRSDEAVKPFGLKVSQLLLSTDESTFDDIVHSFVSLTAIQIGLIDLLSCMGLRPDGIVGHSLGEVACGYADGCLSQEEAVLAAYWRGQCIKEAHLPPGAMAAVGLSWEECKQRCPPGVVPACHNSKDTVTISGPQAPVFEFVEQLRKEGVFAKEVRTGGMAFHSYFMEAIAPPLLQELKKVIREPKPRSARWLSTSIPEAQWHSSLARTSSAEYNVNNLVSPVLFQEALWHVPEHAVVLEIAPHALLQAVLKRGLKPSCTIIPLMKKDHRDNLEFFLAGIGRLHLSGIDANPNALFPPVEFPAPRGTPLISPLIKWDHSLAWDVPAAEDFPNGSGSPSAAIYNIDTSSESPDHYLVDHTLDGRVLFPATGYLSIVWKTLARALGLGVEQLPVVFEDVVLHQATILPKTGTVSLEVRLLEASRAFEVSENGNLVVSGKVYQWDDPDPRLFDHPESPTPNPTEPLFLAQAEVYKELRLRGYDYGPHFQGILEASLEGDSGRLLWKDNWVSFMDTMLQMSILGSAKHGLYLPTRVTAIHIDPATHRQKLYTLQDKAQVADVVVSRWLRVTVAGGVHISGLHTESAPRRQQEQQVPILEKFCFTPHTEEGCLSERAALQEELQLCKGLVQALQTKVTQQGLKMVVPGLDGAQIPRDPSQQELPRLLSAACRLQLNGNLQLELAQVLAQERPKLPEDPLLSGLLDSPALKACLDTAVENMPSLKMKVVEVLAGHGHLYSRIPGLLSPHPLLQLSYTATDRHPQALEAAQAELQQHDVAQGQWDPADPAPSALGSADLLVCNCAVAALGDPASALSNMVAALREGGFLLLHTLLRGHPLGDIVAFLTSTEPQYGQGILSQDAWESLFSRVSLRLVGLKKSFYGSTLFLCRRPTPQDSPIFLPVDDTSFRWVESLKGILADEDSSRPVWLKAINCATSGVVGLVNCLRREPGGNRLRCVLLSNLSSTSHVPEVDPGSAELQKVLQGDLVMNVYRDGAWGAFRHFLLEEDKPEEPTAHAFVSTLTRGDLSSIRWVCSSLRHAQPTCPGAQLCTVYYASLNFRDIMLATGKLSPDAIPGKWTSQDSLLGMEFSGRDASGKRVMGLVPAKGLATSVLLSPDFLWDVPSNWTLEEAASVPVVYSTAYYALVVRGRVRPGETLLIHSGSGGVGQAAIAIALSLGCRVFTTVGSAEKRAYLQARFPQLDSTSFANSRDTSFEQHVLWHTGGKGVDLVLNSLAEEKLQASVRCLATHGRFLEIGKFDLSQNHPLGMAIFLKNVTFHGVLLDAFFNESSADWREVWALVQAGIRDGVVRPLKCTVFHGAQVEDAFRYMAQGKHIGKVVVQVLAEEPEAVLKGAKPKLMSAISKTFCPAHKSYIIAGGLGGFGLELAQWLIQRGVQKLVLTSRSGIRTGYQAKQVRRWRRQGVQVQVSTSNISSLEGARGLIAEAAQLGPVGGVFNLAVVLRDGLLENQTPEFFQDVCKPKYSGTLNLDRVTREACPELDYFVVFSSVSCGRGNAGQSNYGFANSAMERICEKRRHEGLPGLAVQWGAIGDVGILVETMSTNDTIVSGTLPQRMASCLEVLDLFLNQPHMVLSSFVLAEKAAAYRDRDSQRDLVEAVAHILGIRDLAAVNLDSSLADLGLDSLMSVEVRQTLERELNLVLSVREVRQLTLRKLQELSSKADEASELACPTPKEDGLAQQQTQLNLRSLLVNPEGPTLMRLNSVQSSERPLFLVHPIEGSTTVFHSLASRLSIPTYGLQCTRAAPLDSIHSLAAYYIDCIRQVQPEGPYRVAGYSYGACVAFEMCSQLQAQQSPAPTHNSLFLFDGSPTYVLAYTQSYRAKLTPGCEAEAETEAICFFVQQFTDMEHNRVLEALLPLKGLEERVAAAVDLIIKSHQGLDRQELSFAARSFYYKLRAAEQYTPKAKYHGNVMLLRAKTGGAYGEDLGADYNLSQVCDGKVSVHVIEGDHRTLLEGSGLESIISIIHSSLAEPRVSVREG

SMILES | IC50
CCC(=O)N[C@H]1CC[C@@H](N(C)C(=O)c2ccc(-c3nc4ccccc4o3)cc2)C1 [Compound A1, 4-benzoxazol-2-yl-N-methyl-N-((1R,3S)-3-propionylamino-cyclopentyl)-benzamide] | < 300 nM
CN(C(=O)c1ccc(-c2nc3ccccc3o2)cc1)[C@@H]1CC[C@H](NC(=O)C2CC2)C1 [Compound A2, 4-benzoxazol-2-yl-N-[(1R,3S)-3-(cyclopropanecarbonyl-amino)-cyclopentyl]-N-methyl-benzamide] | < 300 nM
CN(C(=O)c1ccc(-c2nc3ccccc3o2)cc1)[C@@H]1CC[C@H](NC(=O)C2(C)CC2)C1 [Compound A3, 4-benzoxazol-2-yl-N-methyl-N-{(1R,3S)-3-[(1-methyl-cyclopropanecarbonyl)-amino]-cyclopentyl}-benzamide] | < 300 nM
CCC(=O)N[C@H]1CC[C@@H](N(C)C(=O)c2ccc(-c3ccncc3)cc2)C1 [Compound A4, N-methyl-N-((1R,3S)-3-propionylamino-cyclopentyl)-4-pyridin-4-yl-benzamide] | < 300 nM
CCC(=O)N[C@H]1CC[C@@H](N(C)C(=O)c2ccc(-c3ccc(Cl)cc3)cc2)C1 [Compound A5, 4′-chloro-biphenyl-4-carboxylic acid methyl-((1R,3S)-3-propionylamino-cyclopentyl)-amide] | < 300 nM
CCC(=O)N[C@H]1CC[C@@H](N(C)C(=O)c2ccc(-c3nc4ccccc4s3)cc2)C1 [Compound A6, 4-benzothiazol-2-yl-N-methyl-N-((1R,3S)-3-propionylamino-cyclopentyl)-benzamide] | < 300 nM
CCC(=O)N[C@H]1CC[C@@H](N(C)C(=O)c2ccc(-c3nc4ccccc4[nH]3)cc2)C1 [Compound A7, 4-(1H-benzimidazol-2-yl)-N-methyl-N-((1R,3S)-3-propionylamino-cyclopentyl)-benzamide] | < 300 nM
CCC(=O)N[C@H]1CC[C@@H](N(C)C(=O)c2ccc(-c3ccccc3)cc2)C1 [Compound A8, biphenyl-4-carboxylic acid methyl-((1R,3S)-3-propionylamino-cyclopentyl)-amide] | < 300 nM
CCC(=O)N[C@H]1CC[C@@H](N(C)C(=O)c2ccc(-c3nc4cc(Cl)ccc4o3)cc2)C1 [Compound A9, 4-(5-chloro-benzoxazol-2-yl)-N-methyl-N-((1R,3S)-3-propionylamino-cyclopentyl)-benzamide] | < 300 nM
CCC(=O)N[C@H]1CC[C@@H](N(C)C(=O)c2ccc(-c3cn4cccnc4n3)cc2)C1 [Compound A10, 4-imidazo[1,2-a]pyrimidin-2-yl-N-methyl-N-((1R,3S)-3-propionylamino-cyclopentyl)-benzamide] | < 300 nM
CCC(=O)N[C@H]1CC[C@@H](N(C)C(=O)c2ccc(-c3ncc[nH]3)cc2)C1 [Compound A11, 4-(1H-imidazol-2-yl)-N-methyl-N-((1R,3S)-3-propionylamino-cyclopentyl)-benzamide] | 3000 to 50000 nM
CCC(=O)N[C@H]1CC[C@@H](N(C)C(=O)c2ccc(-c3ccc(C#N)cc3)cc2)C1 [Compound A12, 4′-cyano-biphenyl-4-carboxylic acid methyl-((1R,3S)-3-propionylamino-cyclopentyl)-amide] | < 300 nM
CCC(=O)N[C@H]1CC[C@@H](N(C)C(=O)c2ccc(-c3nc4ccccc4o3)c(OC)c2)C1 [Compound A13, 4-benzoxazol-2-yl-3-methoxy-N-methyl-N-((1R,3S)-3-propionylamino-cyclopentyl)-benzamide] | < 300 nM
CCC(=O)N[C@H]1CC[C@@H](N(C)C(=O)c2ccc(C#Cc3ccc(Cl)cc3)cc2)C1 [Compound A14, 4-(4-chloro-phenylethynyl)-N-methyl-N-((1R,3S)-3-propionylamino-cyclopentyl)-benzamide] | < 300 nM
CCC(=O)N[C@H]1CC[C@@H](N(C)C(=O)c2ccc(C#Cc3ccncc3)cc2)C1 [Compound A15, N-methyl-N-((1R,3S)-3-propionylamino-cyclopentyl)-4-pyridin-4-ylethynyl-benzamide] | < 300 nM
CCC(=O)N[C@H]1CC[C@@H](N(C)C(=O)c2ccc(-c3nc4ccccc4o3)cn2)C1 [Compound A16, 5-benzoxazol-2-yl-pyridine-2-carboxylic acid methyl-((1R,3S)-3-propionylamino-cyclopentyl)-amide] | < 300 nM
CC(C)C(=O)N[C@H]1CC[C@@H](N(C)C(=O)c2ccc(-c3nc4ccccc4o3)cc2)C1 [Compound A17, 4-benzoxazol-2-yl-N-((1R,3S)-3-isobutyrylamino-cyclopentyl)-N-methyl-benzamide] | < 300 nM

Next, values leading:

IC50 | SMILES
< 300 nM | CC(=O)N[C@H]1CC[C@@H](N(C)C(=O)c2ccc(-c3nc4ccccc4o3)cc2)C1 [Compound A18, N-((1R,3S)-3-acetylamino-cyclopentyl)-4-benzooxazol-2-yl-N-methyl-benzamide]
< 300 nM | CC(C)CCC(=O)N[C@H]1CC[C@@H](N(C)C(=O)c2ccc(-c3nc4ccccc4o3)cc2)C1 [Compound A19, 4-benzoxazol-2-yl-N-methyl-N-[(1R,3S)-3-(4-methyl-pentanoylamino)-cyclopentyl]-benzamide]
300 to 3000 nM | CN(C(=O)c1ccc(-c2nc3ccccc3o2)cc1)[C@@H]1CC[C@H](NC(=O)c2ccccc2)C1 [Compound A20, 4-benzoxazol-2-yl-N-((1R,3S)-3-benzoylamino-cyclopentyl)-N-methyl-benzamide]
< 300 nM | CN(C(=O)c1ccc(-c2nc3ccccc3o2)cc1)[C@@H]1CC[C@H](NC(=O)C2CCCC2)C1 [Compound A21, 4-benzoxazol-2-yl-N-[(1R,3S)-3-(cyclopentanecarbonyl-amino)-cyclopentyl]-N-methyl-benzamide]
300 to 3000 nM | CN(C(=O)c1ccc(-c2nc3ccccc3o2)cc1)[C@@H]1CC[C@H](NC(=O)c2ccncc2)C1 [Compound A22, N-{(1S,3R)-3-[(4-benzoxazol-2-yl-benzoyl)-methyl-amino]-cyclopentyl}-isonicotinamide]
< 300 nM | CN(C(=O)c1ccc(-c2nc3ccccc3o2)cc1)[C@@H]1CC[C@H](NC(=O)Cc2ccccc2)C1 [Compound A23, 4-benzoxazol-2-yl-N-methyl-N-((1R,3S)-3-phenylacetylamino-cyclopentyl)-benzamide]
< 300 nM | CCCCC(=O)N[C@H]1CC[C@@H](N(C)C(=O)c2ccc(-c3nc4ccccc4o3)cc2)C1 [Compound A24, 4-benzoxazol-2-yl-N-methyl-N-((1R,3S)-3-pentanoylamino-cyclopentyl)-benzamide]
300 to 3000 nM | CN(C(=O)c1ccc(-c2nc3ccccc3o2)cc1)[C@@H]1CC[C@H](NC(=O)C(F)(F)C(F)(F)F)C1 [Compound A25, 4-benzoxazol-2-yl-N-methyl-N-[(1R,3S)-3-(2,2,3,3,3-pentafluoro-propionylamino)-cyclopentyl]-benzamide]
< 300 nM | CCC(C)CC(=O)N[C@H]1CC[C@@H](N(C)C(=O)c2ccc(-c3nc4ccccc4o3)cc2)C1 (stereo partly drawn) [Compound A26, 4-benzoxazol-2-yl-N-methyl-N-[(1R,3S)-3-(3-methyl-pentanoylamino)-cyclopentyl]-benzamide]
< 300 nM | CCC(F)(F)C(=O)N[C@H]1CC[C@@H](N(C)C(=O)c2ccc(-c3nc4ccccc4o3)cc2)C1 [Compound A27, 4-benzoxazol-2-yl-N-[(1R,3S)-3-(2,2-difluoro-butyrylamino)-cyclopentyl]-N-methyl-benzamide]
< 300 nM | CC[C@H](C)CC(=O)N[C@H]1CC[C@@H](N(C)C(=O)c2ccc(-c3nc4ccccc4o3)cc2)C1 [Compound A30, 4-benzoxazol-2-yl-N-methyl-N-[(1R,3S)-3-((S)-3-methyl-pentanoylamino)-cyclopentyl]-benzamide]
< 300 nM | CC[C@@H](C)CC(=O)N[C@H]1CC[C@@H](N(C)C(=O)c2ccc(-c3nc4ccccc4o3)cc2)C1 [Compound A31, 4-benzoxazol-2-yl-N-methyl-N-[(1R,3S)-3-((R)-3-methyl-pentanoylamino)-cyclopentyl]-benzamide]
300 to 3000 nM | CO[C@H](C)C(=O)N[C@H]1CC[C@@H](N(C)C(=O)c2ccc(-c3nc4ccccc4o3)cc2)C1 [Compound A32, 4-benzoxazol-2-yl-N-[(1R,3S)-3-((R)-2-methoxy-propionylamino)-cyclopentyl]-N-methyl-benzamide]
< 300 nM | CO[C@@H](C)C(=O)N[C@H]1CC[C@@H](N(C)C(=O)c2ccc(-c3nc4ccccc4o3)cc2)C1 [Compound A33, 4-benzoxazol-2-yl-N-[(1R,3S)-3-((S)-2-methoxy-propionylamino)-cyclopentyl]-N-methyl-benzamide]
< 300 nM | COCC(=O)N[C@H]1CC[C@@H](N(C)C(=O)c2ccc(-c3nc4ccccc4o3)cc2)C1 [Compound A34, 4-benzoxazol-2-yl-N-[(1R,3S)-3-(2-methoxy-acetylamino)-cyclopentyl]-N-methyl-benzamide]
